Measured values published in patent US20130171091A1, “Nanocell Drug Delivery System” (Massachusetts Institute of Technology, priority 2004, published 2013).

What was measured:
Assay type in all cases: cell-based
[1] = system: B16/F10 melanoma cells and human umbilical vein endothelial cells; assay: VEGF-induced response in co-culture assay on matrigel; design: VEGF-induced endothelial network: dose or concentration left out as unconfirmed; settings: for effect on tumor cells: Doxorubicin 10-50 μM
Description: (§1) Protocol: For setting up the system, human umbilical vein endothelial cells, pooled from three donors, were purchased from Cambrex, and used between passages 3-6. […] For the tumor component, we used B16/F10 melanoma cells as the model cell line, which were stably transfected to express green fluorescent protein. Plasmid expressing enhanced green fluorescent protein (pEGFP-C2, Clontech) was linearized and lipofected (Lipofectamine 2000, Invitrogen) into B16-F10 cells. […] The GFP-B16/F10 cells were regularly cultured in DMEM supplemented with 5% FBS. Sterile glass coverslips (Corning) were coated with matrigel (extracellular matrix extracted from murine Englebreth-Holms sarcoma, diluted 1:3 in phosphate buffer saline; Becton Dickinson) or collagen (type I from rat's tail, Becton Dickinson). Synchronized human umbilical vein endothelial cells were trypsinised and plated on the coverslips at a density of 2×10^4 cells per well. The cells were allowed to adhere for 24 hours in endothelial basal media supplemented with 20% fetal bovine serum. At this time point, the media was replaced with EBM supplemented with 1% serum, and green fluorescent protein-expressing B16/F10 cells were added to the system at a density of 5×10^3 cells per well. The co-culture was allowed to incubate overnight, following which different treatments were added to the media. At 24 hours post-treatment, the cells were fixed in paraformaldehyde (4% on ice, for 20 min), and stained with propidium iodide. The coverslips were mounted with antifade, and analysed with a LSM510 Zeiss confocal microscope. […] Data were expressed as the ratio of each component to the total area covered by cells.

[2] = system: B16/F10 melanoma cells and human umbilical vein endothelial cells; assay: VEGF-induced response in co-culture assay plated on collagen
Description: as §1, with “At this time point, the media was replaced with EBM supplemented with 1% serum, and green fluorescent protein-expressing B16/F10 cells were added to the system at a density of 5×10^3 cells per well. The co-culture was allowed to incubate overnight, following which different treatments were added to the media. At 24 hours post-treatment, the cells were fixed in paraformaldehyde (4% on ice, for 20 min), and stained with propidium iodide.” left out

[3] = system: B16/F10 melanoma cells and human umbilical vein endothelial cells; assay: HGF/SF-induced response in co-culture assay on matrigel
Description: as §1

[4] = system: B16/F10 melanoma cells and human umbilical vein endothelial cells; assay: HGF-induced response in co-culture assay plated on collagen
Description: as §1, with “At this time point, the media was replaced with EBM supplemented with 1% serum, and green fluorescent protein-expressing B16/F10 cells were added to the system at a density of 5×10^3 cells per well. The co-culture was allowed to incubate overnight, following which different treatments were added to the media. At 24 hours post-treatment, the cells were fixed in paraformaldehyde (4% on ice, for 20 min), and stained with propidium iodide.” left out

[5] = system: B16/F10 melanoma cells and human umbilical vein endothelial cells; assay: Effect of VEGF and HGF on tumor angiogenesis in vitro, co-culture on matrigel; settings: growth factor added to co-culture on matrigel
Method: Protocol: For setting up the system, human umbilical vein endothelial cells, pooled from three donors, were purchased from Cambrex, and used between passages 3-6. The cells were grown in endothelial basal medium supplemented with 20% fetal bovine serum (FBS) and bulletkit-2 (Sengupta et al. Cancer Res. 63 (23):8351-59, Dec. 1, 2003). For the tumor component, we used B16/F10 melanoma cells as the model cell line, which were stably transfected to express green fluorescent protein. Plasmid expressing enhanced green fluorescent protein (pEGFP-C2, Clontech) was linearized and lipofected (Lipofectamine 2000, Invitrogen) into B16-F10 cells. The stably integrated clones of B16-F10 cells were selected by 800 μg/ml G418. The green fluorescence of the G418 resistant clones was further confirmed by Flow Cytometry and epifluorescence microscopy. The GFP-B16/F10 cells were regularly cultured in DMEM supplemented with 5% FBS. […] The coverslips were mounted with antifade, and analysed with a LSM510 Zeiss confocal microscope. […] Quantification of the area covered by the endothelial cells or GFP-BL6/F10 cells was carried out using a planimetric point-count method using a 224-intersection point square reticulum. Data were expressed as the ratio of each component to the total area covered by cells. […]

Compound | effect on tumor cells [1] | VEGF-induced angiogenesis / vascular network [1] | HGF/SF-induced response (endothelial network) [3] | vascular network [5] | also measured
COc1cccc2c1C(=O)c1c(O)c3c(c(O)c1C2=O)C[C@@](O)(C(=O)CO)C[C@@H]3O[C@H]1C[C@H](N)[C@H](O)[C@H](C)O1 [Doxorubicin] | selective ablation of the tumor cells in a concentration-dependent manner |  |  |  | VEGF-induced endothelial network ([1]; highest concentration used): no effect on the VEGF-induced endothelial network; tumor cell death ([2]; VEGF-treated co-culture): induced tumor cell death; tumor cell death [3]: selective induction of tumor cell death; tumor cell death ([4]; HGF/SF-treated co-culture): induced tumor cell death
Clc1ccc(Nc2nnc(Cc3ccncc3)c3ccccc23)cc1 [PTK787] |  | blocked | no effect on the HGF/SF-induced response |  | 
O=C1CCC(N2C(=O)c3ccccc3C2=O)C(=O)N1 (centres unmarked) [thalidomide] | without affecting the tumor cells | collapse of the VEGF-induced vascular network | failed to inhibit the HGF-induced effect |  | angiogenic effects of VEGF [2]: inhibited the angiogenic effects of VEGF; endothelial cell loss ([4]; HGF/SF): induced endothelial cell loss
HGF/SF: growth factor added to the co-culture |  |  |  | significant increase in the vascular network | 
VEGF |  |  |  | significant increase in the vascular network | 
